Values quoted from earlier work as cited in patent publication US20040096492A1, “Cicatrizant hydrocolloidal patch containing hyaluronic acid and chondroitin sulphate” (priority 2001, published 2004).

Tested on: full thickness (300 mm^2) cutaneous wound
Conditions: rats

## sodium chondroitin sulphate
8 days after the second application of 30 mg
  residual area in the treated group relative to the control group: half
One or two applications of 30 mg, vs control
  reduction of the damaged surface (planimetry): more rapid
Vs control
  clinical signs connected with the lesion (edema-exudate): decreased more quickly
